# Test results from patent US9555061B2, “Synthesis and analysis of compounds capable of inducing differentiation of human mesenchymal stems cells into hepatocytes” (National University Corporation Torrori University, priority 2011, dated 2017).
# Experiments:
# [1] = system: clinical specimen-derived mesenchymal stem cells; assay: PAS staining in clinical specimen-derived mesenchymal stem cells; type: cell-based, human; details: day 8, PN-3-13 20 μM, IC-2 40 μM
# Method: PAS staining was performed according to the following procedure. A cover glass that had been sterilized with 100% ethanol was placed on a 12-well plate. Cells were seeded on the cover glass at a cell density of 1.8×10^4 cells/cm^2. This day was designated as day 0. At day 1 corresponding to the next day, each medium was changed to a medium containing HC-2 (at a final concentration of 20 μM), PN-3-13 (at a final concentration of 20 μM), IC-2 (at a final concentration of 40 μM), or 0.1% DMSO. At day 4, the medium was changed in a manner similar to that at day 1, and the cells were cultured until day 8. At day 8, the cells were washed twice with PBS and were fixed with 4% paraformaldehyde for 30 min. As a negative control, α-amylase (Nacalai Tesque) at a final concentration of 10 mg/ml was added, and the cells were incubated therewith at 37° C. for 1 h to digest their glycogen. Subsequently, the cells were treated with 1% aqueous periodic acid for 5 min. Then, the cells were treated with a Schiff reagent (Nacalai Tesque) for 15 min to stain glycogen. After that, the cells were washed three times with aqueous sulfurous acid and were then washed three times with distilled water. The nuclei were stained with Mayer's Hematoxylin (MUTO PURE CHEMICALS CO., LTD.) for 1 min. […]
# [2] = system: UE7T-13 cells; assay: RT-PCR of genes encoding liver-specific secretory proteins and cytokines (UE7T-13); type: cell-based, human; details: hexachlorophene 0.8 μM or IC-2 15 μM; days 8, 16, 24
# Method: Bone marrow-derived mesenchymal stem cells (UE7T-13 cells) were treated with a compound, hexachlorophene (H4625-25G; Sigma-Aldrich, Inc.) or IC-2. At that time, gene expression of each of liver-specific secretory proteins and cytokines was evaluated. […] This time point was set to day 0.
# At the next day corresponding to day 1, the medium was changed to DMEM containing hexachlorophene at a final concentration of 0.8 μM or IC-2 at a final concentration of 15 μM. […] After that, the medium was replaced twice during 8 days, and the cells were subcultured every 8 days. Then, the similar operation was carried out until day 24. At days 8, 16, and 24 after the initiation of the induction, TRIzol (Invitrogen) was used to extract total RNA according to the attached instruction. After the extraction, deoxyribonuclease (Nippon Gene) was added, and the mixture was incubated at 37° C. for 30 min to remove DNA. In a reverse transcription reaction, SuperScriptII Reverse Transcriptase (Invitrogen) and Oligo(dT)15 primer were added to 1 μg of RNA to convert it into cDNA. In a RT-PCR method, the cDNA was diluted by 5 times. Next, 1 μl of the cDNA was used as a template. Then, rTaq DNA polymerase (TOYOBO) was used to amplify the cDNA. MQ water was used as a negative control. cDNA from Huh-7 or UE7T-13 cells was used as a positive control. […]
substance,measurement,setting,value
"(6S,9aS)-6-phenyl-8-naphthalen-1-ylmethyl-4,7-dioxo-hexahydro-pyrazino[1,2-a]pyrimidine-1-carbocylic acid benzylamide [IC-2]",cellular glycogen accumulation compared with negative control (0.1% DMSO),[1],apparent increase
same,expression of a plurality of the liver-specific secretory proteins and cytokines,[2],increased levels of expression
